From patent US20240229097A1, “SYSTEM, METHOD, DEVICE AND MANUFACTURING METHOD THEREOF FOR DETECTING CELLULAR MECHANICAL FORCE” (Ruixin (Fuzhou) Technology Co., Ltd., priority 2021, published 2024) come the findings set out here.

Holding throughout (type): cell-based
For test [1], the system named is non-small cell lung cancer cells A549. Briefly: MTT assay of cell viability of A549 cells treated with 5FU. From the text: (§1) Specifically, this embodiment cultures non-small cell lung cancer cells A549 on multiple device for detecting cellular mechanical force, treats them with different doses of the cell proliferation inhibitor 5-fluorouracil (5-FU), and monitors cellular mechanical forces at different time points using the system for detecting cellular mechanical force or the method described in the tenth to twelfth embodiments or the fourteenth embodiment. Cell proliferation and cytotoxicity are monitored at different time points using the CCK-8 assay kit, with cell viability measured by the MTT assay serving as a control, generating the data for FIGS. 16,b and c.
(In general: Formazan colour is commonly taken as a measure of viable cells.)

The test system is the same in test [2]. Briefly: Cell viability reflected by cellular mechanical force (micropillar light reflection device), A549 cells treated with 5FU.
Source text: This embodiment specifically provides using the cellular mechanical force information obtained from any of the system for detecting cellular mechanical force described in the tenth to twelfth embodiments or the cellular mechanical force detection method described in the fourteenth embodiment to monitor cell viability.
as §1

The test system of test [3] is breast cancer cells MCF-7 multicellular aggregates. Briefly: 5-Fu drug sensitivity test on tumor cell multicellular aggregates on the cellular mechanical force detection device. Conditions: MCF-7 aggregates, 200 μM 5-Fu, cultured for one day, FIG. 18. How it is done: More specifically, this embodiment provides a method for culturing a tumor cell multicellular aggregate on the device for detecting cellular mechanical force for drug sensitivity test, including the steps:
S1, Generation of tumor cell multicellular aggregates: FN 50 μg/mL is applied to the top of the micropillar of the device for detecting cellular mechanical force and sterilized with UV for 30 minutes; breast cancer cells MCF-7 (approximately 1×10^5 to 9×10^5 cells) are seeded on the top surface of the micropillars (number of micropillars is not limited) of the device for detecting cellular mechanical force, which is then immersed in 3dGRO™ Spheroid Medium (S3077) for more than 3 days to induce the formation of tumor cell multicellular aggregates.
S2, Applying the generated tumor cell multicellular aggregates to a 5-Fu drug sensitivity test: 200 μM of 5-Fu is added to the tumor cell multicellular aggregates and cultured for one day; in the test, before the addition of 5-Fu and one day of culture after the addition of 5-Fu on the device for detecting cellular mechanical force (with tumor cell multicellular aggregates, including the culture medium), light reflection signals are captured by the light signal detection device (CCD sensor) and cellular mechanical force distribution images are obtained using the light signal analysis device (ImageJ), as shown in FIG. 18. […]

Where [4] appears, read: different doses of 5FU, FIGS. 16,b and c.

For the compound `O=c1[nH]cc(F)c(=O)[nH]1` [5FU, 5-fluorouracil], the “cell viability measured by the conventional MTT assay” value in test [1] (setting [4]) is listed as “dose-dependent decline”. Also, the “change in cell viability by MTT assay” value in test [1] (within 12 hours of 5FU treatment, FIG. 16,c) is “no significant change”. For the same compound, the “time at which a significant decrease trend of cellular mechanical force is observed” value in test [2] (0.5 μM treatment dose) came to 6 h. The “time at which a significant decrease trend of cellular mechanical force is observed” value in test [2] (1 μM treatment dose) is 3 h. For the same compound, in test [2] (different doses of 5FU for 24 hours, relative to MTT assay, FIG. 16,b), the “cellular viability reflected by mechanical force compared to the control group (DMSO)” value is “greater reduction”. Further, the “cell viability reflected by cellular mechanical forces” value in test [2] (setting [4]) is “dose-dependent decline”. For the same compound, in test [3], the “cell viability of tumor cell multicellular aggregates” value was “reduced” and the “reflection signals of tumor cell multicellular aggregates” value is “noticeably weaken”.
